Activity calls are given as the source filed them.
How the values were obtained:
[1] = molecular target: T1, Endoribonuclease toxin MazF (Escherichia coli K-12, UniProt P0AE70); assay: substrate-only fluorescence increase artefacts – biochemical, single-stranded RNase substrate, counter-screen for MazEF activator project, dose response (AID 588502); assay type: functional
T1 sequence (P0AE70 whole entry): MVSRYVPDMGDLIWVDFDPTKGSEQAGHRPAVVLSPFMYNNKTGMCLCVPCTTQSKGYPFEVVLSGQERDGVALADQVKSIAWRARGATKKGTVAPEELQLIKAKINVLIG

[2] = molecular target: T2, Zinc finger protein mex-5 (Caenorhabditis elegans, UniProt Q9XUB2); assay: potency of MEX-5 RNA-binding blockers – biochemical, C. elegans, fluorescence polarization, dose response (AID 1960)
T2 sequence (Q9XUB2 whole entry): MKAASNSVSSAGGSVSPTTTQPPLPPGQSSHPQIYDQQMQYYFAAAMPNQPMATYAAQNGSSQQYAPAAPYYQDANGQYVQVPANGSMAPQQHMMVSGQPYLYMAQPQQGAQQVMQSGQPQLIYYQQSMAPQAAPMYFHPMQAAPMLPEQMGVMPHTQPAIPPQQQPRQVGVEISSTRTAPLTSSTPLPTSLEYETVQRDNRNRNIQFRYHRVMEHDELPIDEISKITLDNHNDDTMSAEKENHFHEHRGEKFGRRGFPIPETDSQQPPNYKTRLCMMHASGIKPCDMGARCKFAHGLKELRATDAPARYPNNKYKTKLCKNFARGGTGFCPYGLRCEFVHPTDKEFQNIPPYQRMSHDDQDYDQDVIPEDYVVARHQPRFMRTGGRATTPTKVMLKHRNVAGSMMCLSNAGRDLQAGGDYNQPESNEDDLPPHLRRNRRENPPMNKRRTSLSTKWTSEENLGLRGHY

[3] = Luminescence Cell-Based Dose Confirmation HTS to Identify Activators of 5'UTR Stem-Loop Driven Alpha-Synuclein mRNA Translation in H4 Neuroglioblastoma Cells. [Related pubchem assays: 1829 (Project Summary), 1814 (Primary HTS)]; assay type: functional
[4] = test system: H4; assay: Luminescence Cell-Based Dose Response HTS to Identify Activators of 5'UTR Stem-Loop Driven Prion Protein mRNA Translation in H4 Neuroglioblastoma Cells. [Related pubchem assays: 1829 (Project Summary), 1814 (Primary HTS)]; assay type: functional; settings: Homo sapiens
[5] = molecular target: T3, RNA-binding protein pos-1 (Caenorhabditis elegans, UniProt G5EF15); assay: disruptors of C. elegans POS-1 RNA interaction – biochemical, fluorescence polarization, dose response (AID 1964);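 note: purified POS-1 fused to maltose binding protein made in E. coli; potency of compounds blocking POS-1 binding to fluorescent RNA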
T3 sequence (G5EF15 whole entry): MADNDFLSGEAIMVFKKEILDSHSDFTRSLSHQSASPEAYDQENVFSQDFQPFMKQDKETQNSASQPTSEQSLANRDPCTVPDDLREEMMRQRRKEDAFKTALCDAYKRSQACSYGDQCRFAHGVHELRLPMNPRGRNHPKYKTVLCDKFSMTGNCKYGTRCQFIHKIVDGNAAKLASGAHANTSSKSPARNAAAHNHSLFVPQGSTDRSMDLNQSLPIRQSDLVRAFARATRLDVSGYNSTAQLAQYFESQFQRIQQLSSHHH

[6] = molecular target: T1, Endoribonuclease toxin MazF; assay: activation of MazEF endoribonuclease cleavage – biochemical, fluorescence, single-stranded RNA substrate, uHTS hits, dose response (AID 588481); assay type: functional
[7] = Luminescence Cell-Based Dose Response HTS to Identify Activators of Luciferase Translation or Activity in H4 […] Cells. [Related pubchem assays: 1829 (Project Summary), 1814 (Primary HTS)]; assay type: functional
[8] = Trypanosoma cruzi growth suppression in host cells – NIH3T3 host cells, beta-gal luminescence, confirmation (AID 2044); assay type: functional, cell-based;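 note: intracellular parasites grown in NIH/3T3 mouse fibroblasts as host cells; luminescent beta-galactosidase reporter signal from transgenic T. cruzi replicating inside host cells; inhibitors lower the luminescence signal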
[9] = cells
[10] = NIH3T3 cell viability loss – ATP luminescence, mouse fibroblasts, counter-screen, dose response (AID 2010); assay type: functional, cell-based;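 note: cells exposed to compound for about 90 hours before reading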
[11] = molecular target: Cytochrome P450 2D6 (Homo sapiens, UniProt P10635);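 note: CYP2D6 member of a cytochrome P450 panel assay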
Sequence of Cytochrome P450 2D6 (P10635 whole entry): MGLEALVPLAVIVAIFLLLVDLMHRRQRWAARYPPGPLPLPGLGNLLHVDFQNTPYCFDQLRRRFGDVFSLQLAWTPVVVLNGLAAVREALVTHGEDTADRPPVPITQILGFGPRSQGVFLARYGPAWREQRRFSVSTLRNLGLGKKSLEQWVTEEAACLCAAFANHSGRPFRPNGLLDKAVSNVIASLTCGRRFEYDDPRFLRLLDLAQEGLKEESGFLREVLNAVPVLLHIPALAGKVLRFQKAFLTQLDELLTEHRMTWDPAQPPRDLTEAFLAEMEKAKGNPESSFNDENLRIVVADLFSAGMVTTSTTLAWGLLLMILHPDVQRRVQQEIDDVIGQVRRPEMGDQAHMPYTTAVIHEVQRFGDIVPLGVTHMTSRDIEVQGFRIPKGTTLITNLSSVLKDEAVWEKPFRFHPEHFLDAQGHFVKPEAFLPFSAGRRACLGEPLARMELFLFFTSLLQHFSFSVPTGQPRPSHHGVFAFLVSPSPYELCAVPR

[12] = molecular target: Cytochrome P450 2C9 (Homo sapiens, UniProt P11712)
Sequence of Cytochrome P450 2C9 (P11712 whole entry): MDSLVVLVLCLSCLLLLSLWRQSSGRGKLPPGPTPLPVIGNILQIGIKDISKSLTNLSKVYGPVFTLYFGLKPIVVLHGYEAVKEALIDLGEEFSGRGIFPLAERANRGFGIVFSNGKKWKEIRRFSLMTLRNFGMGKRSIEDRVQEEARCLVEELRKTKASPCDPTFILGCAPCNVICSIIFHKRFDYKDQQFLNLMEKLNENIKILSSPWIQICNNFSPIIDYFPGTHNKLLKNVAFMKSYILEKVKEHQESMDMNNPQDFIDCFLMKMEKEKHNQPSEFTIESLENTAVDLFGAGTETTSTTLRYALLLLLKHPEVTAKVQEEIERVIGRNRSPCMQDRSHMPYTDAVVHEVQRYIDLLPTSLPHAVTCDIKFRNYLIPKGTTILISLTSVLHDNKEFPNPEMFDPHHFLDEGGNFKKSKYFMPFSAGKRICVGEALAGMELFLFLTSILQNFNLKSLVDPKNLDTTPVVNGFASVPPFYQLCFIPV

[13] = cells; assay type: functional
[14] = cells; assay type: functional, cell-based
[15] = NIH-3T3 fibroblast cytotoxicity, dose response, cytotoxicity control, cell-based, fluorescence, Alamar Blue, secondary assay (AID 2327); assay type: functional;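 note: NIH-3T3 mouse fibroblasts cultured with fluconazole at 8 µg/mL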
[16] = A Cell Based Secondary Assay To Explore Cytotoxicity of Compounds that Sensitize Mycobacterium Tuberculosis to Beta-Lactam Antibiotics.; assay type: functional
[17] = cells; assay type: functional, cell-based; remark: listed apart in the source
[18] = fluconazole-exposed Candida albicans growth modulators – fluorescence, retest, confirmation (AID 2467); assay type: functional, cell-based
[19] = molecular target: T4, Microphthalmia-associated transcription factor (Homo sapiens, UniProt O75030); assay: reducers of TRPM1 reporter luminescence, concentration series – cell-based, SK-MEL-5, cherry-picked, set 3, MITF inhibitor project, dose response (AID 493073); assay type: functional;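 note: SK-MEL-5 melanoma cells with luciferase driven by the MITF target TRPM1 promoter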
T4 sequence (O75030 whole entry): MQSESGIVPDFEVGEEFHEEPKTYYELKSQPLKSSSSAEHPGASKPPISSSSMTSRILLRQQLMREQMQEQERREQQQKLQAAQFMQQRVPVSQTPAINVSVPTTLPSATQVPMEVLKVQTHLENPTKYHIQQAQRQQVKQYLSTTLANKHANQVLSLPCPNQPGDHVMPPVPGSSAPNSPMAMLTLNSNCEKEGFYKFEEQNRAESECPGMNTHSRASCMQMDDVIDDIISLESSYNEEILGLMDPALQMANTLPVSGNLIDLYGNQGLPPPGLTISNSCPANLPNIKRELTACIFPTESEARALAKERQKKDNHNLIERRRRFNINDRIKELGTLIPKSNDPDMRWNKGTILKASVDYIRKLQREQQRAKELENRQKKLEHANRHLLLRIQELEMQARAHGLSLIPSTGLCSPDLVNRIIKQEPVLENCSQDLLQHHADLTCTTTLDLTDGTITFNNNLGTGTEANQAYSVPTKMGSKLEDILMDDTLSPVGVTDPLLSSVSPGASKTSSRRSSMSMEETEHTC

[20] = molecular target: Nonstructural protein 1 (Influenza A virus, UniProt Q194T2); assay type: functional, Influenza A virus (A/California/07/2009(H1N1))
Sequence of Nonstructural protein 1 (Q194T2 whole entry): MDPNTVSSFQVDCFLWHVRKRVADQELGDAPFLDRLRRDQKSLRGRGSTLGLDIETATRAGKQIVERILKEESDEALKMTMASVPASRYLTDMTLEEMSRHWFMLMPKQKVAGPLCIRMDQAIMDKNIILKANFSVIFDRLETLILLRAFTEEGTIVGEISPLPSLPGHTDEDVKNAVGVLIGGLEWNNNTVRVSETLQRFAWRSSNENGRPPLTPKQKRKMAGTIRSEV

[21] = test system: Vero; assay: viability of Vero cells under compound – cytotoxicity control for flavivirus capping enzyme inhibitors (AID 588742); assay type: functional; settings: Chlorocebus sabaeus
[22] = molecular target: T5, Histone-lysine N-methyltransferase NSD2 (Homo sapiens, UniProt O96028); assay type: biochemical
T5 sequence (O96028 whole entry): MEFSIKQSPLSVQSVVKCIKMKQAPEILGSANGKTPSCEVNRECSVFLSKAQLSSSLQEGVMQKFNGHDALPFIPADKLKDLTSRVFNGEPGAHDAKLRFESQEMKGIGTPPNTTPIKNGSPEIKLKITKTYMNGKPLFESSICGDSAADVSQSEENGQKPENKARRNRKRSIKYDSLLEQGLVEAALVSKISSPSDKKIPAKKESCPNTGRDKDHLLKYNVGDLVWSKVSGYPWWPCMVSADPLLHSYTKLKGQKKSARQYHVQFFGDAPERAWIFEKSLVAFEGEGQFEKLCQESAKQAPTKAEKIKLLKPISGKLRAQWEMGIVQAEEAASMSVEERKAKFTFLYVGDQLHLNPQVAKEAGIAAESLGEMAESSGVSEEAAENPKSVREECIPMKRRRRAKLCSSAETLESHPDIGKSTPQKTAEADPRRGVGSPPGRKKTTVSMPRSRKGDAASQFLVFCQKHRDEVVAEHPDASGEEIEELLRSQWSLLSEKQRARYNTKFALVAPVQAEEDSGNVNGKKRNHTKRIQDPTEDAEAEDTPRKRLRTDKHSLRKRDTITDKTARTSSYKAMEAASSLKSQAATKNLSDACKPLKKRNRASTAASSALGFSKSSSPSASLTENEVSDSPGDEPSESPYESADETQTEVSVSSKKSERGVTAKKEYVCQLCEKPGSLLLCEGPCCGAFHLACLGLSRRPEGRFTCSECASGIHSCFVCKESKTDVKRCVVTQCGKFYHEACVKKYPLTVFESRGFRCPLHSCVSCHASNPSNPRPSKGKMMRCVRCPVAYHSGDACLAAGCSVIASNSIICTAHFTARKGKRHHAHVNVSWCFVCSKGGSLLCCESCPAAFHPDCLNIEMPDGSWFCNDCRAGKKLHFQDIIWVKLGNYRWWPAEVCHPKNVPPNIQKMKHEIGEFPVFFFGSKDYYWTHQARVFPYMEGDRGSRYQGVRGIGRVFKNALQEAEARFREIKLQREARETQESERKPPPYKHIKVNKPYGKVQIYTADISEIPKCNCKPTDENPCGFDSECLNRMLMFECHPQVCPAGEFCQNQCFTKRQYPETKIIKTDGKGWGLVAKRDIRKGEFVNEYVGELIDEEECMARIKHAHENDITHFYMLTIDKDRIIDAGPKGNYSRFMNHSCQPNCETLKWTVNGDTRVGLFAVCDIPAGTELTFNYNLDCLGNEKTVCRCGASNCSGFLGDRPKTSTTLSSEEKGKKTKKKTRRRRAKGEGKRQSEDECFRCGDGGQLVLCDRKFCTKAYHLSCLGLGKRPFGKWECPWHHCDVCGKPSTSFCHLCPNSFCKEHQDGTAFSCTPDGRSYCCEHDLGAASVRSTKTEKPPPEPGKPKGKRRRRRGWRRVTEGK

[23] = molecular target: T6, Heat shock factor protein 1 (Mus musculus, UniProt P38532); assay: decrease of HSF1-responsive luciferase luminescence – cell-based, NIH3T3, dose retest, confirmation (AID 2382); assay type: functional;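 note: NIH3T3 fibroblasts with HSF1-driven luciferase reporter stressed by proteasome inhibitor MG132; luminescence from HSF1-driven luciferase expression after 8 hours of MG132 stress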
T6 sequence (P38532 whole entry): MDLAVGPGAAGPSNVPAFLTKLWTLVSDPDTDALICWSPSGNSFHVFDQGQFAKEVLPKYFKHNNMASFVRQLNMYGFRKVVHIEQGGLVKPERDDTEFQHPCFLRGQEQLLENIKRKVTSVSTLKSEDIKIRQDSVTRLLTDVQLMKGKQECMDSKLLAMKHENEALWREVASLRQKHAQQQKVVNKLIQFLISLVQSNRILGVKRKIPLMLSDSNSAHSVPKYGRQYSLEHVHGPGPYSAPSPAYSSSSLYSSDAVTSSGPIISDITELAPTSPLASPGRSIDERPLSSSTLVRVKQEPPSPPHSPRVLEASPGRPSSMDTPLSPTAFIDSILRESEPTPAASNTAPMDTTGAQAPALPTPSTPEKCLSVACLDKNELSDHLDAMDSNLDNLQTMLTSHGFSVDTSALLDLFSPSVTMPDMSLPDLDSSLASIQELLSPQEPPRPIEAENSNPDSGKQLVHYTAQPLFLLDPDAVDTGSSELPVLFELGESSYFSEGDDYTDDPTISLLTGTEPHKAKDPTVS

Row | Structure (SMILES) | EC50 [1] | EC50 [6] | EC50 [8] | EC50 [9] | EC50 [10] | also measured
1 | CCN1C(=O)/C(=C2/C=Cc3ccccc3N2C)OC1=S | > 99 µM (inactive) | > 99 µM (inactive) |  |  |  | EC50 [2]: 3.94 µM (inconclusive); EC50 [3]: 2.39 µM (active); EC50 [4]: 39.4 µM (active); EC50 [5]: 55.8 µM (active); EC50 [7]: 4.49 µM (active)
2 | CC(C)Oc1cccc(C(=O)C2CCCN(Cc3ccc(Oc4ncccn4)cc3)C2)c1 (stereo not given) |  |  | < 0.1 µM (active) | 0.081 µM (active) | > 60 µM (not active) | 
3 | O=C(CCCn1cnc([N+](=O)[O-])n1)Nc1ccc(Cl)c(Cl)c1 |  |  | < 0.1 µM (active) | 0.054 µM (active) | > 60 µM (not active) | AC50 [11]: 15.8 µM (inconclusive); AC50 [12]: 15.8 µM (inconclusive)
4 | CCOc1cccc(CN2CCCC(N3CCc4cc(OC)c(OC)cc4C3)C2)c1O (stereo not given) |  |  | < 0.1 µM (active) | 0.084 µM (active) | > 60 µM (not active) | 
5 | Cc1ccc2cc3c(N)c(C(=O)Nc4c(C)[nH]c(=O)[nH]c4=O)sc3nc2c1 | > 99 µM (inactive) | > 99 µM (inactive) |  |  |  | 
6 | O=C(c1ccc([N+](=O)[O-])o1)N1CCc2ccccc2C1 |  |  | < 0.1 µM (active) | 0.042 µM (active) | > 60 µM (not active) | IC50 [13]: 0.45 µM (active)
7 | CC(=O)n1c(/C=N/c2ccc(Cl)cc2)c(O)c2ccccc21 | 31.1 µM (inactive) | > 99 µM (inactive) |  |  |  | 
8 | O=C(CSCC(=O)Nc1ccccc1)N/N=C/c1c(O)ccc2ccccc12 | > 99 µM (inactive) | > 99 µM (inactive) |  |  |  | EC50 [14]: > 350 µM (not active); EC50 [15]: > 160 µM (inactive); CC50 [16]: 6.22 µM (active); EC50 [17]: 9.25 µM (active); EC50 [18]: > 38 µM (not active); AC50 [19]: 3.34 µM (active)
9 | CCOC(=O)C1=C(C)N=c2s/c(=C/c3cccc([N+](=O)[O-])c3O)c(=O)n2C1c1ccccc1 (stereo not given) |  |  |  |  |  | IC50 [20]: 22.1 µM (active); CC50 [21]: 31.1 µM (active); AC50 [22]: > 20 µM (inactive)
10 | Cc1ccc(O)c(/C=N/NC(=O)CN2CCCC2)c1 |  |  |  |  |  | IC50 [20]: 15.3 µM (active); EC50 [23]: > 195 µM (not active); EC50 [17]: 104 µM (active)
